Laboratory results as given in patent US9120861B2, “Functional enhancement of antimicrobials” (Mississippi State University, priority 2008, dated 2015).
Entries after “also recorded” stand apart in the source; their conditions may differ.

Experiments:
[1] = thin layer chromatography (TLC) lipid II binding assay; conditions: iodine stain; FIG. 8 and FIG. 9
Description: In FIG. 8 and FIG. 9, a thin layer chromatography (TLC) lipid II binding assay for native and modified nisin A and gallidermin is shown, respectively. The method of the present invention enables direct visualization for the loss of lipid II binding. […] Nisin is not as stable as gallidermin at higher temperatures.

M. luteus = test: bioassay plate overlaid with M. luteus (bacterial clearing); format: cell-based; conditions: 5 μL spotted onto a plate overlaid with M. luteus; FIG. 6
Experimental: We performed a 2-mercaptoethanol addition to mutacin 1140 at pH 7.3 in Tris buffer at room temperature for 2 hours. FIG. 5 is a RP-HPLC chromatogram of the native mutacin 1140, designated by the black line with triangles, overlaid on the chromatogram of the 2-mercaptoethanol modified mutacin 1140 (B-Me mutacin), which is designated by the grey line with circles. The modification changes the retention time of the native molecule to the left, a slightly more hydrophilic solvent (more water relative to acetonitrile). The large peak in the flow through was determined, by smell, to be 2-mercaptoethanol. The two small sharp peaks following the flow peak, which both have an absorbance in the 280 nm range, appears to be contaminants in the 2-mercaptoethanol solution. They also appeared in Nisin A modified by the same 2-mercaptoethanol labeling procedure. Nisin has no aromatic residues to account for this absorbance. […] In the future, these 2-mercatoethanol peaks will be removed by washing the sample with ice cold ether, which will extract the thiol compound leaving our peptide in solution. We spotted 5 μL of the native mutacin and the B-Me mutacin onto a plate overlaid with M. luteus. […] We also performed the same reaction with ethanethiol following the same procedure outline above. […]

Row | Substance | lipid II binding (retention of lipid II at the origin of the TLC plate) [1] | bactericidal activity (bacterial clearing, inhibition of bacterial growth) (M. luteus)
1 | gallidermin | retain lipid II at the origin | 
2 | nisin A | retain lipid II at the origin | 
3 | ethanethiol labeled nisin: nisin following addition of the organosulfur compound ethanethiol | maintains lipid II binding activity; also recorded: diminished capacity to retain lipid II at the origin | 
4 | mutacin 1140 |  | bacterial clearing
